Results from patent US10695589B1, “Method and kit for home controlled ovarian stimulation for in vitro fertilization” (priority 2019, dated 2020).
Square brackets hold non-standard residues; d marks the D form. Peptide text beside a SMILES is read from it. d(hArg(Et2)) = CCN=C(NCC)NCCCC[C@@H](N)C(=O)O; hArg(Et2) = CCN=C(NCC)NCCCC[C@H](N)C(=O)O; dPhe(4-Cl) = N[C@H](Cc1ccc(Cl)cc1)C(=O)O; d2Nal = N[C@H](Cc1ccc2ccccc2c1)C(=O)O; d3Pal = N[C@H](Cc1cccnc1)C(=O)O

Columns and labels:
[1] = tested on: Luteinizing hormone (LH) blood level; assay: LH blood hormone level in patients on home controlled ovarian hyperstimulation method with vaginal elagolix (Example 2); format: in vivo, female patients
Description: On day 9 of the menstrual cycle, the patient is directed to orally take 50 to 150 mg, preferably 100 mg, (one, two, or three 50 mg oral tablets) of clomiphene citrate and to either insert vaginally or take orally, depending on the patient's preference, a gonadotropin-releasing hormone (GnRH) antagonist such as elagolix (marketed as ORILISSA®), instead of the expensive injections of ganirelix acetate (GANIRELEX®) or cetrorelix acetate (marketed as CETROTIDE®) used routinely in conventional practices. A dose of 25 mg (⅛^th of a pill) up to 200 mg of elagolix (1 full pill), preferably 25 mg, will be used, with the dose being the same whether inserted vaginally or taken orally. Elagolix is a GnRH antagonist that is conventionally used in the treatment of pain associated with endometriosis in women, not for the treatment of infertility. By blocking the GnRH receptor, elagolix suppresses LH release by the pituitary gland and thus prevents LH surge. Ultimately, elagolix suppresses gonadal steroid production, thereby reducing circulating levels of sex hormones such as progesterone, estradiol, and testosterone. Elagolix is generally an oral medication (oral tablet), however in the present method, elagolix is a tablet taken mainly as a vaginal suppository, but may be taken orally based on the patient's preference. Additionally, the lowest and most preferred dose of elagolix (25 mg) that is used is one-eighth of the daily dosage conventionally administered for the treatment of endometriosis (e.g., 200 mg to 400 mg daily). […] Alternative GnRH receptor antagonists that can be used instead of elagolix include linzagolix and relugolix.
Five female patients were treated with the controlled ovarian hyperstimulation method described herein using the elagolix pill (vaginal route) instead of the conventional Ganirelex/Cetrotide injectables. On day 3 of the patient's menstrual cycle, the patient orally took 100 mg (two 50 mg oral tablets) of clomiphene citrate and 5 mg (two 2.5 mg oral tablets) of letrozole. The patient then took the same oral dosages of clomiphene citrate and letrozole daily on each of days 4-7 of the patient's menstrual cycle. On day 8 of the patient's menstrual cycle, the patient orally took only 100 mg (two 50 mg oral tablets) of clomiphene citrate, and stopped the letrozole. On day 9 of the menstrual cycle, the patient orally took 100 mg (two 50 mg oral tablets) of clomiphene citrate and inserted vaginally a 50 mg tablet of elagolix as a vaginal suppository. On day 10 of the menstrual cycle, the patient orally took only 100 mg (two 50 mg oral tablets) of clomiphene citrate. On day 11 of the menstrual cycle, the patient orally took 100 mg (two 50 mg oral tablets) of clomiphene citrate and inserted vaginally a 50 mg tablet of elagolix as a vaginal suppository. Also, on day 11, the patient took a home ovulation test in the morning (9:00 am) and in the evening (9:00 pm). For the patients whose ovulation tests were not positive, then on days 12 and 13, the patient took 2 doses of leuprorelin as a nasal spray (1:40 dilution in saline) as follows. On day 12, after taking a home ovulation test at 9:00 am, 2 puffs (sprays) of the nasal spray were self-administered by the patient per nostril. After 12 hours of waiting, at 9:00 pm the patient took a home urine ovulation test and then self-administered 2 more puffs (sprays) of the nasal spray per nostril. On day 13, the patient repeated the procedure of day 12. Luteinizing hormone (LH) blood level was 7.0 mIU/mL on day 11 and dropped to 1.0 mIU/mL on day 13.
(§1) Table 2 below provides a comparison of the efficacy of conventional Ganirelex/Cetrotide injectables treatment for IVF in the five representative patients from Example 1 with the home controlled ovarian hyperstimulation method described herein in the five representative patients from Example 2.

[2] = tested on: Luteinizing hormone (LH) blood level; assay: LH blood hormone level in patients on conventional GnRH antagonist protocol with Ganirelex/Cetrotide injectables (Example 1); format: in vivo, female patients
Description: Five female patients were treated with a GnRH antagonist protocol requiring injections of medications.
One patient, patient no. 1, was injected with 150 Units of FSH on days 3 to 12; half a syringe of 150 mcg/0.5 mL of ganirelix acetate on days 11 and 12; and 50 mg of clomiphene citrate on days 3 to 12; and 2.5 mg of letrozole on days 3 to 7. Luteinizing hormone (LH) blood level was 4.3 mIU/mL on day 10 and dropped to 2 mIU/mL on day 12.
A second patient, patient no. 2, was injected with 75 Units of FSH on days 4 to 12 and 150 Units on day 13; half a syringe of 150 mcg/0.5 mL of ganirelix acetate on days 11 to 13; 50 mg of clomiphene citrate on days 10 to 12, and 2.5 mg of letrozole on days 3 to 7. Luteinizing hormone (LH) blood level was 12.0 mIU/mL on day 11 and dropped to 6.3 mIU/mL on day 13.
Three patients, numbered 3 to 5, were injected with 75, 150 and 225 Units of FSH, respectively, on days 4 to 12 and one third a syringe of 150 mcg/0.5 mL of ganirelix acetate on days 11 to 13. Patient no. 3 received 50 mg of clomiphene citrate on days 4 to 12, and 2.5 mg of letrozole on days 4 to 8. Patient no. 4 received 100 mg of clomiphene citrate and 2.5 mg of letrozole on days 4 to 8, and 50 mg of clomiphene citrate on days 9 to 11. Patient no. 5 received no clomiphene citrate or letrozole. Luteinizing hormone (LH) blood level was 12.0, 18.0 and 14.6 mIU/mL, respectively, on day 10 and dropped to 4.9, 16.0 and 14.1 mIU/mL, respectively, on day 12.
as §1

[3] = Example 2 patient 4, 50 mg elagolix vaginal suppository on days 9 and 11
[4] = Example 2 patient 5, 50 mg elagolix vaginal suppository on days 9 and 11

COc1cccc(-c2c(C)n(Cc3c(F)cccc3C(F)(F)F)c(=O)n(C[C@H](NCCCC(=O)O)c3ccccc3)c2=O)c1F [elagolix]
LH blood hormone level BEFORE medication intake ([1]; Example 2 patient 1, day 11, 50 mg elagolix tablet as vaginal suppository on days 9 and 11, clomiphene citrate 100 mg days 3-11, letrozole 5 mg days 3-7): 7.0 mIU/mL | LH blood hormone level AFTER medication intake ([1]; Example 2 patient 1, day 13, 50 mg elagolix vaginal suppository on days 9 and 11): 1.0 mIU/mL | LH blood hormone level AFTER medication intake ([1]; Example 2 patient 2, 50 mg elagolix vaginal suppository on days 9 and 11): 5.7 mIU/mL | LH blood hormone level AFTER medication intake ([1]; Example 2 patient 3, 50 mg elagolix vaginal suppository on days 9 and 11): 3.2 mIU/mL | LH blood hormone level AFTER medication intake [1, 3]: 1.7 mIU/mL | LH blood hormone level BEFORE medication intake [1, 3]: 8.2 mIU/mL | LH blood hormone level AFTER medication intake [1, 4]: 0.8 mIU/mL | LH blood hormone level BEFORE medication intake [1, 4]: 7 mIU/mL | GnRH antagonist effect in the patients ([1]; lower dose of elagolix taken as a vaginal suppository instead of orally): effective GnRH antagonist

CCN=C(NCC)NCCCC[C@H](NC(=O)[C@H](CC(C)C)NC(=O)[C@@H](CCCCNC(=NCC)NCC)NC(=O)[C@H](Cc1ccc(O)cc1)NC(=O)[C@H](CO)NC(=O)[C@@H](Cc1cccnc1)NC(=O)[C@@H](Cc1ccc(Cl)cc1)NC(=O)[C@@H](Cc1ccc2ccccc2c1)NC(C)=O)C(=O)N1CCC[C@H]1C(=O)N[C@H](C)C(N)=O [Ganirelex, ganirelix acetate] (Ac-[d2Nal][dPhe(4-Cl)][d3Pal]SY[d(hArg(Et2))]L[hArg(Et2)]P[dA]-NH2)
LH blood hormone level BEFORE medication intake ([2]; Example 1 patient 1, day 10, half a syringe of 150 mcg/0.5 mL ganirelix acetate on days 11 and 12, FSH 150 Units days 3-12, clomiphene citrate 50 mg days 3-12, letrozole 2.5 mg days 3-7): 4.3 mIU/mL | % Drop in blood LH hormone level ([2]; Example 1 patient 1, day 10 to day 12): 53.5% | % Drop in blood LH hormone level ([2]; Example 1 patient 1, day 10 to day 12, listed as Conventional Ganielex/Cetrotide Injectables): 53.5% | LH blood hormone level AFTER medication intake ([2]; Example 1 patient 1, day 12, half a syringe ganirelix acetate on days 11 and 12): 2 mIU/mL | LH blood hormone level AFTER medication intake ([2]; Example 1 patient 1, day 12, half a syringe ganirelix acetate on days 11 and 12, listed as Conventional Ganielex/Cetrotide Injectables): 2.0 mIU/mL | LH blood hormone level BEFORE medication intake ([2]; Example 1 patient 2, day 11, half a syringe of 150 mcg/0.5 mL ganirelix acetate on days 11 to 13, FSH 75 Units days 4-12 and 150 Units day 13, clomiphene citrate 50 mg days 10-12, letrozole 2.5 mg days 3-7): 12.0 mIU/mL | % Drop in blood LH hormone level ([2]; Example 1 patient 2, day 11 to day 13): 47.5% | % Drop in blood LH hormone level ([2]; Example 1 patient 2, day 11 to day 13, listed as Conventional Ganielex/Cetrotide Injectables): 47.5% | LH blood hormone level AFTER medication intake ([2]; Example 1 patient 2, day 13, half a syringe ganirelix acetate on days 11 to 13): 6.3 mIU/mL | LH blood hormone level BEFORE medication intake ([2]; Example 1 patient 3, day 10, one third a syringe of 150 mcg/0.5 mL ganirelix acetate on days 11 to 13, FSH 75 Units days 4-12, clomiphene citrate 50 mg days 4-12, letrozole 2.5 mg days 4-8): 12.0 mIU/mL | % Drop in blood LH hormone level ([2]; Example 1 patient 3, day 10 to day 12): 59.25% | % Drop in blood LH hormone level ([2]; Example 1 patient 3, day 10 to day 12, listed as Conventional Ganielex/Cetrotide Injectables): 59.2% | LH blood hormone level AFTER medication intake ([2]; Example 1 patient 3, day 12, one third a syringe ganirelix acetate on days 11 to 13): 4.9 mIU/mL | LH blood hormone level BEFORE medication intake ([2]; Example 1 patient 4, day 10, one third a syringe of 150 mcg/0.5 mL ganirelix acetate on days 11 to 13, FSH 150 Units days 4-12, clomiphene citrate 100 mg and letrozole 2.5 mg days 4-8, clomiphene citrate 50 mg days 9-11): 18.0 mIU/mL | % Drop in blood LH hormone level ([2]; Example 1 patient 4, day 10 to day 12): 11.1% | % Drop in blood LH hormone level ([2]; Example 1 patient 4, day 10 to day 12, listed as Conventional Ganielex/Cetrotide Injectables): 11.1% | LH blood hormone level AFTER medication intake ([2]; Example 1 patient 4, day 12, one third a syringe ganirelix acetate on days 11 to 13): 16.0 mIU/mL | LH blood hormone level BEFORE medication intake ([2]; Example 1 patient 5, day 10, one third a syringe of 150 mcg/0.5 mL ganirelix acetate on days 11 to 13, FSH 225 Units days 4-12, no clomiphene citrate or letrozole): 14.6 mIU/mL | % Drop in blood LH hormone level ([2]; Example 1 patient 5, day 10 to day 12): 3.4% | % Drop in blood LH hormone level ([2]; Example 1 patient 5, day 10 to day 12, listed as Conventional Ganielex/Cetrotide Injectables): 3.4% | LH blood hormone level AFTER medication intake ([2]; Example 1 patient 5, day 12, one third a syringe ganirelix acetate on days 11 to 13): 14.1 mIU/mL
